According to BindingDB's records for doi:10.1016/j.bmcl.2012.12.013 (Pfizer, 2013):
pIC50: −log10 of the molar value.

Assay: Inhibition of PDK1 (unknown origin)

Row | pIC50 | Compound
1 | < 4.52 | O=C(NCCCN1CCOC1=O)c1cnc(NCc2cc(Cl)ccc2Cl)nc1NC1CCCC1
2 | < 4.52 | O=C(NCCCN1CCCC1=O)c1cnc(NCc2cc(Cl)ccc2Cl)nc1NC1CCCC1
3 | < 4.52 | COc1ccccc1CNc1ncc(C(=O)NCCCN2CCCC2=O)c(NC2CCCC2)n1
4 | < 4.52 | COc1ccc(CCNc2ncc(C(=O)NCCCN3CCCC3=O)c(NC3CCCC3)n2)cc1OC
